Data on seven compounds can be found in patent publication EP0254179A2, “Tetrahydrobenzothiazoloquinolines, their preparation and use” (BOEHRINGER INGELHEIM KG, priority 1986, dated 1988).

For assay [1], the system named is präsynaptischer Dopaminrezeptoren. The experiment in a line: Determination of dopamine utilisation after AMPT treatment (whole-brain dopamine by HPLC with electrochemical detection). The class given is in vivo, Ratten. The conditions noted are these: rats; 10 mg/kg s.c. at 0 and 2 hours; AMPT 250 mg/kg intraperitoneal; brains taken at 4 hours. The source says:
(§1) Im Vergleich zu der bekannten racemischen Verbindung 6-Methyl-9-amino-5,6,6a,7-tetrahydro-4H-benzo[de]thiazolo[4,-5-g] chinolin wurden daher beispielsweise die Verbindungen ((-)-Enantiomere) • a= 9-Amino-5,6,6a,7-tetrahydro-4H-benzo[de]thiazolo[4,5-g] chinolin • b= 6-Ethyl-9-amino-5,6,6a,7-tetrahydro-4H-benzo[de]-thiazolo[4,5-g]chinolin. • c= 6-Propyl-9-amino-5,6,6a,7-tetrahydro-4H-benzo[de]-thiazolo[4,5-g]chinolin • d= 6-Methyl-9-benzylamino-5,6,6a,7-tetrahydro-4H-benzo[de]-thiazolo[4,5-g]chinolin • e= 6-Ethyl-9-methylamino-5,6,6a,7-tetrahydro-4H-benzo[de]-thiazolo[4,5-g]chinolin • f= 6-Ethyl-9-dimethylamino-5,6,6a,7-tetrahydro-4H-benzo[de]thiazolo[4,5-g]chinolin. hinsichtlich ihrer Beeinflussung präsynaptischer Dopaminrezeptoren untersucht, wobei zunächst die Wirkung auf die exploratorische Aktivität von Mäusen getestet und anschließend die Beeinflussung der Dopaminutilisation und der Dopaminsynthese an Ratten wie folgt bestimmt wurden:
Die Dopaminutilisation wurde an Ratten gemessen. Bei Tieren, die mit α-Methylparatyrosin (AMPT) (250 mg/kg intraperitoneal) behandelt werden, fällt die Dopaminkonzentration im Gesamthirn mit fortschreitender Versuchsdauer ab. Durch Substanzen, die an Autorezeptoren wirken, kann der Dopaminabfall (im Vergleich zu mit Kochsalzlösung behandelten Kontrolltieren) vermindert werden.
Die Testsubstanzen werden zum Zeitpunkt 0 und 2 Stunden des Experiments - soweit nicht anders angegeben - zur Erstellung einer Dosis-Wirkungskurve mit 0,01 bis 10 mg/kg s.c. appliziert. Zum Zeitpunkt 4 Stunden des Experiments werden die Tiere getötet und die Gehirne der Dopaminbestimmung mittels Hochdruckflüssigkeitchromatographie mit elektrochemischer Detektion zugeführt. Bestimmt wird die durch die Testsubstanz bewirkte prozentuelle Steigerung der Dopaminutilisation nach AMPT-Behandlung.

Assay [2] has the same test system. The experiment in a line: Inhibition of exploratory activity (light-beam interruptions by groups of 5 mice). Format: in vivo, Mäusen. The conditions noted are these: 10 mg/kg subcutaneous, measured 1 hour after injection over 5 minutes, versus saline controls.
Excerpt: as §1
Die Aktititätsmessung erfolgte in Beobachtungskäfigen, die mit einer Infrarotlichtschranke versehen sind. Gemessen wird die Häufigkeit der Unterbrechung des Lichtstrahles durch eine Gruppe von 5 Mäusen innerhalb von 5 Minuten. Gruppen von jeweils 5 Tieren erhalten die zu untersuchende Substanz in einer Dosis von 10 mg/kg subkutan injiziert. 1 Stunde später werden die Tiere in die Beobachtungskäfige gebracht, wo sofort mit der Messung der exploratorischen Aktivität über 5 Minuten begonnen wird. Parallel bzw. alternierend zu Gruppen, die mit Testsubstanz behandelt wurden, werden kochsalzbehandelte Kontrollgruppen (o,9%ig; 0,1 ml/10 g Körpergewicht subkutan) untersucht.
Alle diejenigen Substanzen wurden in die weitere Versuchsreihe aufgenommen, die als Vorbedingung eine Hemmung der exploratorischen Aktivität gegenüber den Kontrolltieren von >50% aufwiesen, wie es beispielsweise für die oben näher bezeichneten Verbindungen a,b,c,d,e, und f nachzuweisen war.

Each structure is given as a SMILES string. Bounds are passed on as bounds.

Consider `CN1CCc2cccc3c2C1Cc1sc(N)nc1-3` (racemic) [Vergleich, 6-Methyl-9-amino-5,6,6a,7-tetrahydro-4H-benzo[de]thiazolo[4,5-g] chinolin, reference compound], for which, in assay [1], the “Prozentuale Steigerung der Dopaminutilisation” value is reported as 34%.

Turning to `Nc1nc2c(s1)CC1NCCc3cccc-2c31` (stereo not drawn) [a, 9-Amino-5,6,6a,7-tetrahydro-4H-benzo[de]thiazolo[4,5-g] chinolin], the “Hemmung der exploratorischen Aktivität gegenüber den Kontrolltieren” value in assay [2] is listed as over 50%. As for `CCN1CCc2cccc3c2C1Cc1sc(N)nc1-3` (stereo not drawn) [b, 6-Ethyl-9-amino-5,6,6a,7-tetrahydro-4H-benzo[de]thiazolo[4,5-g]chinolin], in assay [2], the “Hemmung der exploratorischen Aktivität gegenüber den Kontrolltieren” value is on record as over 50%. Also, the “Prozentuale Steigerung der Dopaminutilisation” value in assay [1] is recorded as 64%.

`CCCN1CCc2cccc3c2C1Cc1sc(N)nc1-3` (stereo not drawn) [c, 6-Propyl-9-amino-5,6,6a,7-tetrahydro-4H-benzo[de]thiazolo[4,5-g]chinolin]: the “Hemmung der exploratorischen Aktivität gegenüber den Kontrolltieren” value in assay [2] is given as over 50%. In addition, in assay [1], the “Prozentuale Steigerung der Dopaminutilisation” value was 112%. For `CN1CCc2cccc3c2C1Cc1sc(NCc2ccccc2)nc1-3` (stereo not drawn) [d, 6-Methyl-9-benzylamino-5,6,6a,7-tetrahydro-4H-benzo[de]thiazolo[4,5-g]chinolin], the “Hemmung der exploratorischen Aktivität gegenüber den Kontrolltieren” value in assay [2] is over 50%. As to `CCN1CCc2cccc3c2C1Cc1sc(NC)nc1-3` (stereo not drawn) [e, 6-Ethyl-9-methylamino-5,6,6a,7-tetrahydro-4H-benzo[de]thiazolo[4,5-g]chinolin], the “Hemmung der exploratorischen Aktivität gegenüber den Kontrolltieren” value in assay [2] is over 50%. As to `CCN1CCc2cccc3c2C1Cc1sc(N(C)C)nc1-3` (stereo not drawn) [f, 6-Ethyl-9-dimethylamino-5,6,6a,7-tetrahydro-4H-benzo[de]thiazolo[4,5-g]chinolin], the “Hemmung der exploratorischen Aktivität gegenüber den Kontrolltieren” value in assay [2] is over 50%.
